Data published in a melting point compilation (Tetko et al.; mined from patent text by program, amines drawn as free bases though some values may be those of a salt).

Structure (SMILES) | melting point [°C]
COC(=O)c1cc(CN=[N+]=[N-])cc([N+](=O)[O-])c1 | 44 to 46
CCCCCc1nc2c(N)nc3ccccc3c2n1CCCCNS(C)(=O)=O | 137 to 138
CCc1cn(C2CC(O)C(CNC(=O)Cc3ccccc3N)O2)c(=O)[nH]c1=O (stereo not given) | 195 to 196
O=C(Cc1cccc(C(F)(F)F)c1)N1CCc2cc3c(cc2CC1)OCO3 | 102 to 104
O=c1c2c(Cc3ccccc3[N+](=O)[O-])n[nH]c2c2cccnc2n1-c1cccc(C(F)(F)F)c1 | 282 to 284
Nc1cc(N2CCc3ccccc3C2)ccn1 | 160 to 161
Cc1cc(F)ccc1-c1ccc(S(=O)(=O)N2c3ccccc3CC2C(=O)NCc2ccccc2NCCC(=O)O)cc1 (stereo not given) | 118 to 126
O=S(=O)(Nc1nc2ncc(Cl)cn2n1)c1ccccc1Cl | 256 to 260
Cc1c(C)c2c(c(C)c1Br)CC(C)(CBr)O2 (stereo not given) | 60 to 61
CCOC(=O)C1=C(C)Nc2nc(N3CCOCC3)nc(N3CCOCC3)c2C1c1cccc(OC)c1OC (stereo not given) | 194
CCCCCCCCC(=CC=C(O)C(=O)OCC)C(=O)OCC | 58
COc1ccc(C(=O)Nc2cccc(O)c2NC(=O)c2ccc(OC)cc2)cc1 | 208 to 209
N#Cc1ccnc(N2CCOCC2)c1 | 135 to 136
CCc1ccc2nn(-c3cc(C)ccc3O)nc2c1 | 91 to 91.5
Cc1[nH]c(=S)n(Nc2cccc(Cl)c2)c1-c1cccc(Cl)c1 | 204
COc1ccc(C(C#Cc2ccccc2)CC(C)=O)cc1OC1CCCC1 (racemic) | 62 to 64
CCCCCCCCCCCCCCCCCCNC(=O)OCC(CNS(=O)(=O)CCCI)NC(C)=O (stereo not given) | 101 to 102
C[C@H](Cc1ccc2c(c1)cc(C(=O)O)n2Cc1ccccc1)NC[C@H](O)c1cccc(Cl)c1 | 128 to 130
CCC(C(N)=O)c1c(C(O)(C(F)(F)F)C(F)(F)F)ccc2ccccc12 (stereo not given) | 189 to 190
O=C(NCc1ccc(F)cc1)c1ccnc(N2CCN(Cc3ccc(F)cc3F)C2=O)c1 | 171 to 173
C=C1C(=O)Nc2ccc(C(F)(F)F)cc2CC1c1ccc(OC)cc1 (stereo not given) | 181 to 183
CS(=O)(=O)N1C[C@H](S)C[C@H]1CSCc1ccccc1 | 102 to 104
Cc1c(C)c(O)c(CC[C@](C)(O)CO)c(C)c1O | 124 to 132
CN(C)c1ccc(/C=C/c2c(Cl)cccc2Cl)cc1 | 96 to 97
CCOC(=O)C1=C(COCCNC2=NC(=O)CS2)NC(C)=C(C(=O)OC)C1c1cccc(Cl)c1Cl (stereo not given) | 204 to 205

Structure (SMILES) | melting point [°C]
CSc1ccc(CC#N)cc1 | 44 to 45
COc1ccc(-c2ccc(NC(=O)OC(C)(C)C)cc2)cc1 | 142 to 147
O=C(Nc1ccccc1)Nc1cccc(-c2ccc(CC3SC(=O)NC3=O)cc2)c1 (stereo not given) | 185
Nc1cccc(Cn2c(-c3ccc(-c4cncnc4)cc3)ccc2-c2ccccc2Cl)n1 | 163 to 164
COc1ccccc1-n1c(=O)[nH]c2c(OC)cccc21 | 246 to 247
COc1ccc(OC)c(Nc2nc(-c3ccc(F)cc3)cs2)c1 | 160
Cc1cc(C)c(S(=O)(=O)OC[C@@H]2C[C@@H]2COS(=O)(=O)c2c(C)cc(C)cc2C)c(C)c1 | 240
COc1ccccc1C(CNc1c(C#N)cnn2cccc12)N1CCOCC1 (stereo not given) | 157
CN(C(=O)CCCOc1ccc2nc3n(c(=O)c2c1)CS(=O)(=O)N3)C1CCCCC1 | > 330
CC(CNc1cccc(C(F)(F)F)c1)Nc1cccc(C(F)(F)F)c1 (stereo not given) | 116 to 120
COC(=O)CC[C@@H](CF)NC(=O)OCc1ccccc1 | 46 to 48
CC(C)OC(=O)N1CCN(c2ccn3ncc(-c4cccn(C)c4=O)c3n2)CC1 | 206 to 207
COc1ccc(-c2c(N[C@H](C)c3ccccc3)c(=O)c2=O)cc1 | 159 to 160
CCOC(=O)NNC1=Nc2sc(CC)cc2C(c2ccccc2Cl)=NC1 | 207
Cc1c(-c2ccc(F)cc2)n(Cc2ccc(OCCN3CCCCCC3)cc2)c2ccc(O)cc12 | 181 to 184
CCOC(=O)CO[C@H]1CC[C@H](CCN(C(=O)c2ccccc2)S(=O)(=O)c2ccc(Cl)cc2)CC1 | 81 to 82
Cc1cc(SCCSCC(=O)O)ccc1O | 86
COC(=O)[C@@H](C)Nc1ncccc1[N+](=O)[O-] | 39 to 40
CCCCc1ccc(C(=O)NCCCCCCO)cc1 | 80 to 81
CCCCCCCCCCCCCCCCCCOc1cc(OCC(=O)O)cc(C(=O)N(CC(=O)O)CC(=O)O)c1 | 134 to 136
FC(F)(F)c1nc(Cl)c2ccccc2n1 | 62 to 63.5
O=C(Nc1nc(-c2ccccc2)cs1)C(=O)Nc1nc(-c2ccccc2)cs1 | 292 to 293
CCOC(=O)c1cc(C)nn1C | 150 to 154
Cc1cc(=O)c2[nH]nc(C)c2[nH]1 | > 346
Nc1c(-c2ccc(-c3ccccc3)cc2)nc2ccc(Cl)cc2c1C(=O)O | 244 to 245
